Data set [1] concerns EGFR autophosphorylation (Y1068).
Experimental: HCC827 and PC9 cell cultures are set up from log-phase passage flasks. Cells are seeded into 6-well plates at a density of 1 million cells per well and left for 48 hours under normoxic or hypoxic (1% O2) conditions. Following 3 hours of drug exposure, cells are washed in ice-cold PBS and lysed on ice for 30 minutes with radioimmunoprecipitation assay (RIPA) buffer containing sodium orthovanadate and sodium fluoride at final concentrations of 1 mM each. Cell debris is pelleted out by centrifugation (13,000 rpm for 2 minutes). Protein concentrations in each sample are determined by a bicinchoninic acid (BCA) assay. Equivalent amounts of protein (10 pig) are denatured (98° C. for 5 minutes) and loaded onto 4-20% Tris-Glycine protein gels for protein separation. Following transfer to a nitrocellulose membrane, each membrane was blocked with 5% bovine serum albumin (in Tris-buffered saline) for 1 hour. […] Excess primary antibody in each membrane was washed off with Tris-buffered saline. Secondary antibody (goat anti-rabbit) was added to each membrane at a dilution of 1:5000 for 2 hours. For protein detection, the membrane was washed in Tris-buffered saline to remove excess secondary antibody and chemiluminescent substrate added (Pierce Supersignal West Pico Chemiluminescent Substrate) for 5 minutes. The membrane was viewed using a Fujifilm LAS 4000 imager.
The subject of another data set is PC9 xenografts. In kind it is in vivo. The conditions noted are these: erlotinib 10 mg/kg daily oral, period of dosing 21 days.
A short description of data set [2]: in vivo. The conditions noted are these: NIH-III nude, mouse, blood, po, 10 mg/kg.
The test system of a further data set is HCC827 tumor. The data set can be described thus: HCC827 xenograft growth delay. In kind it is in vivo, mice. To be noted: Erlotinib 10 mg/kg Qdx21 p.o.
The subject of data set [3] is FaDu cells. Briefly: FaDu anti-proliferative assay, five day continuous aerobic exposure. In kind it is cell-based, human.
Experimental: (§1) FaDu cells were grown in αMEM culture medium supplemented with 5% FBS, without routine use of antibiotics (P/S). Cultures were re-established from authenticated frozen stocks in liquid nitrogen at either >24 passages or >90 days in culture (whichever came first). The frozen cell stocks were confirmed to be free of mycoplasma using a PCR-ELIZA kit (Roche Diagnostics GmbH, Mannheim, Germany).
Cells were then treated with ten serial dilutions (3-fold) of each test compound. Cells were left to grow in a humidified incubator (5% CO2, 37° C.) for 5 days. Cells were then fixed with 40% trichloroacetic acid for 1 h at 4° C. Cells were then stained for Sulforhodamine B (SRB) expression. Cell density was determined by using the Biotek ELx808 Absorbance Microplate Reader.
Data set [4] relates to FaDu cells. The data set can be described thus: FaDu anti-proliferative assay, oxic vs anoxic 24 h exposure. It counts as cell-based, human.
Experimental: as §1
Monolayers of FaDu cells were harvested by trypsinisation and counted using a hemocytometer. For the oxic assays, cells were seeded (1500 cells/well) in 96 well plates and allowed to settle for 2 hours in a humidified incubator (37 C/5% CO2). Cells were then treated with ten serial dilutions (3-fold) of each test compound for 24 hours. For the anoxic plates, all supplies were pre-equilibrated for at least 72 hours in a H2/palladium-catalyst anaerobic chamber (Bactron, Shellab) to remove any residual oxygen. On the experiment day, cells were centrifuged (1000 rpm, 5 min) to pellet cells. The media was aspirated. The pellet was then taken into the anaerobic chamber and diluted in anoxia-equilibrated media (αMEM culture media, 5% FCS, 0.2 mmol/L 2′-deoxycytidine, 10 mmol/L glucose) to achieve the appropriate cell density. Cells were seeded in identical conditions to the oxic plates. Once seeded, cells were left to settle in a humidified incubator (37 C) within the anaerobic chamber for 2 hours. Anoxic plates were similarly treated with ten serial dilutions (3-fold) of each test compound. Anoxic plates were removed from the anaerobic chamber four hours after drug addition, and placed into a humidified incubator (37 C/5% CO2) for a further 20 hours. After a total of 24 hours of drug exposure, both the oxic and anoxic plates were washed three times in fresh media (αMEM+5% FCS+P/S). Cells were left to grow for a total of 5 days. After which, cells were fixed with 40% trichloroacetic acid for 1 hour at 4° C. Plates were then stained for Sulforhodamine B (SRB) expression. Cell density was determined by using the Biotek ELx808 Absorbance Microplate Reader. […]
Data set [5] deals with WT EGFR expressing A431 xenograft. Briefly: A431 xenograft antitumor activity. It counts as in vivo, mice. The conditions noted are these: daily oral.
The next data set concerns PC9 tumor. Briefly: PC9 xenograft growth delay. In kind it is in vivo, mice.
The test system of data set [6] is WT EGFR driven H125 xenografts. To be noted: mouse, in vivo.
Data set [7] can be described thus: in vivo. To be noted: NIH-III, mouse, plasma, ip, 15 mg/kg; for Cmax: 15 mg/kg TH-4000 ip, ± SE.
Experimental: (§2) Mice were inoculated with PC-9 cells (˜8×10^6 cells per mouse, 42 mice in total). […] The whole tumors were snap frozen (with liquid nitrogen) and bio-pulverised. The tumors were measured every day until collection to correlate the growth kinetics of the tumor to target shutdown.
(§3) For LC-MS/MS, 4 volumes of ice cold acetonitrile (containing 0.5 μM of D6-TH-4000 & TH-4000E) were added to the tumor samples. Samples were spun at 13,000 rpm for 5 min. and 40 μL of the supernatant was taken. To the supernant, 80 μL of 0.01% FA-Water was added and the sample was mixed. 10 μL of this sample was injected for analysis. […] The mass spectrometer was operated in electrospray positive ionization mode using multiple reaction monitoring (MRM). Agilent MassHunter software (v.4.04.00) was used for data acquisition and chromatographic peak integration.
Another data set deals with pEGFR (Y1068) (Homo sapiens, UniProt P00533). Briefly: FaDu target modulation Western blot, pEGFR. A general note: A western blot detects proteins with antibodies after separation by electrophoresis.
Another data set concerns EGFR signalling. Briefly: Hypoxia preconditioning and TH-4000E sensitivity in FaDu cells. The conditions noted are these: 48 h at 0.1% O2 or 21% O2. It counts as cell-based, human. How it is done:
FaDu cells were seeded (500 k per well) in 6 well plates under both 0.1% O2 and 21% O2 for 48 hours. After 48 h of hypoxia preconditioning, cells were incubated with various concentrations of TH-4000E for 1 h.
After the designated period of anoxic exposure, cells were washed once in ice-cold PBS. […] After clarification, a BCA assay was performed to determine the protein concentration of the samples. Absorbance readings were performed at 550 nm.
Cellular lysates were resolved by gel electrophoresis and immunoblotted for various members of the EGFR signaling axis. Each loading volume included 10 μg of protein and 25% LDS sample buffer (Life Technologies #NP0007). Samples were loaded onto NuPAGE 4-12% Bis-Tris 15 well gels (Life Technologies #NP0336) and run in MES running buffer (Life Technologies #NP0002) for approximately 2 h's at 120V or until the samples had run off the gel (whichever came first). Samples were then transferred (Transfer buffer: 25 mM Tris, 192 mM glycine, 20% methanol) for 80 mins at 100V onto nitrocellulose membranes. Blots were blocked in 5% BSA or 5% phosphoblocker (CellBiolabs #AKR-104) in TBS-T for at least 1 h. Briefly, blots were incubated with primary antibodies overnight at 4° C. After three 5 min washes in TBS-T, blots were then incubated with the appropriate HRP-conjugated secondary antibody for at least 2 hours at room temperature. […]

For data set [8] the following is noted: 15 mg/kg TH-4000, tumor.
Experimental: as §2, §3
For the next data set, the system named is pERK. The data set can be described thus: FaDu target modulation Western blot, pERK. The conditions noted are these: 1 h drug, EGF 50 ng/mL 15 min.
A further data set has as its system pAkt. Briefly: FaDu target modulation Western blot, pAkt. The conditions noted are these: 1 h drug, EGF 50 ng/mL 15 min.
Data set [9] has as its system EGFR pathway signal transduction. The data set can be described thus: FaDu target modulation, EGFR pathway relative dose potency.

Experimental for HCC827 tumor: (§4) HCC827 and PC9 human non-small cell lung cancer (NSCLC) cells were prepared in medium. […] HCC827 tumors were recruited at ˜200 mm^3 and PC9 tumors were recruited at ˜400 mm^3. When the tumors reached the desired volumes, the mice were randomly assigned to groups A-E and treated as detailed in Table 1 below:
(§5) Body weight was recorded every 3 days or prior to dosing and the length and width of subcutaneous tumors were measured with electronic calipers every 3 days and volume calculated according to the formula for a prolate ellipsoid (π/6×length×width×width). All other clinical signs were recorded.
Experimental for PC9 tumor: as §4, §5
Experimental for PC9 xenografts: Tumors were grown to ˜400 mm^3. When tumors were 400 mm^3 mice were randomly assigned to groups A-J and treated as detailed below:
The length and width of subcutaneous tumors were measured with electronic calipers every 3 days and volume calculated according to the formula for a prolate ellipsoid (π/6×length×width×width). Body weight was recorded every 3 days or prior to dosing. All other clinical signs were recorded.

On to `C=CC(=O)Nc1cc(Nc2nccc(-c3cn(C)c4ccccc34)n2)c(OC)cc1N(C)CCN(C)C` [AZD9291], for which the “effect of hypoxia on inhibition of EGFR phosphorylation” value in [1] was “resistance to AZD9291”.

As to `C#Cc1cccc(Nc2ncnc3cc(OCCOC)c(OCCOC)cc23)c1` [Erlotinib], the tumor response entry in the data set on PC9 xenografts is “stable disease”. This compound also came in with an AUC(0-inf) in the data set “in vivo [2]” of 20000 ng·h/mL. Also, the results for the “Median time to RTV4” value in the data set with HCC827 tumor and in the data set with PC9 tumor (Erlotinib 10 mg/kg Qdx21 p.o.) were 114 days and 39 days, respectively. Further, in the data set with FaDu cells [3], the “IC50 difference, erlotinib superior to cetuximab” value is 2 fold. Moreover, the “effect of anoxia on sensitivity” value in the data set with FaDu cells [4] is on record as “unaffected by anoxia”. Further, the “IC50 lower than cetuximab” value in the data set on FaDu cells [4] (after anoxic exposure) is given as 13 fold. For the same compound, the tumor outcome in data set [5] is on record as “unable to prevent tumor progression”. Also, in the data set with PC9 tumor (10 mg/kg Erlotinib, reference Control), the “Median Survival gain” value is listed as 9 days.

In the case of `CN(C)C/C=C/C(=O)Nc1cc2c(Nc3ccc(F)c(Cl)c3)ncnc2cc1O[C@H]1CCOC1` [Afatinib], the “Day of average weight loss nadir” value in data set [6] was “[day 9]”.

In the data set “in vivo [7]”, `CN(C)C/C=C/C(=O)Nc1cc2c(Nc3ccc(Cl)c(Br)c3)ncnc2cn1` [TH-4000E] showed an AUC(0-inf) of 106 ng·h/mL and a half-life of 1.28 h. The compound further returned a Cmax in “in vivo [7]” (Cmax obs) of 47 ± 3.6 ng/mL. The same compound returned a Cmax in the data set “in vivo [7]” (Cmax pred) of 50 ng/mL. Moreover, at pEGFR (Y1068) (1 h drug, EGF 50 ng/mL 15 min), the “concentration completely silencing pEGFR (Y1068) expression” value is listed as at least 0.12 μM. Further, the “pEGFR expression completely silenced up to” value at pEGFR (Y1068) (lowest concentration of 3-fold dilutions) was determined as 0.041 μM. For the same compound, in the data set with FaDu cells [3], the “dose potency relative to cetuximab” value is listed as 150 fold and the “lower IC50 value than erlotinib” value turned out to be 80 fold. Besides, the “sensitivity, oxia- vs hypoxia-preconditioned cells” value with EGFR signalling is on record as “comparable”. Moreover, the “dose-potency relative to erlotinib (IC50)” value with FaDu cells [4] came out at 1400 fold. For the same compound, the “T½β of released TKI in PC9 tumors” value in data set [8] is reported as 84 h. Besides, the “concentration completely silencing pERK expression” value with pERK is at least 0.12 μM. The “concentration largely silencing pAkt expression” value in the data set on pAkt is given as “above 0.12 μM”. In data set [9], the “dose potency relative to TH-4000” value was “approximately 28 fold” and the “dose potency relative to cetuximab” value is given as “at least 250 fold”.

The AUC(0-inf) is total exposure, with the tail of the curve extrapolated. Higher therefore signals more exposure. A word on the half-life: it is the time needed for the level to fall by half in the phase considered. High values mean slow decline, low ones rapid decline. What is called Cmax is the maximum level reached in the sampled fluid or tissue.

(Values after US10507210B2, “Kinase inhibitor prodrug for the treatment of cancer” (Auckland UniServices Limited, priority 2014, dated 2019).)
